Values of other authors in patent publication US20260069581A1, “METHODS AND COMPOSITIONS FOR CANCER THERAPY” (OHIO STATE INNOVATION FOUNDATION, priority 2020, published 2026).

What was measured:
Rad51 = settings: Ref. 33; cited from earlier work
[1] = test system: cell lines derived from T-cell lymphomas or leukemias; settings: Ref. 25, cited from earlier work
tubulin acetylation = settings: concentration as high as 50 μM, Ref. 25; cited from earlier work
AML = settings: low micromolar doses, Ref. 25; cited from earlier work
[2] = test system: prostate cancer and lung adenocarcinoma cells; settings: Ref. 32; cited from earlier work

Q: With `CN(C)Cc1c(C(=O)NCCOc2ccc(C(=O)NO)cc2)oc2ccccc12` [PCI-2481] as the compound, how does the Rad51 expression (Rad51) read?
A: reduction of Rad51 expression

Q: Which apoptosis [1] does the source give for `COc1ccc(Cn2ccc3ccc(C(=O)NO)cc32)cc1` [PCI-34051] here?
A: induces caspase-dependent apoptosis

Q: And the GI50 ([1]; cell lines derived from T-cell lymphomas or leukemias)?
A: 2.4 to 4 µM

Q: And the tubulin acetylation (tubulin acetylation)?
A: did not induce significant tubulin acetylation

Q: What about the AML death (AML) of the same compound?
A: failed to induce AML death

Q: With `O=C(CCCCCCC(=O)Nc1ccccc1)NO` [vorinostat] as the compound, how does the “Rad50 and MRE11 protein levels” value [2] read?
A: downregulates
